Results reported in patent EP1763350B1, “NICOTINAMIDE DERIVATIVES AND THEIR USE AS THERAPEUTIC AGENTS” (Xenon Pharmaceuticals Inc., priority 2004, dated 2006).
“And” between values parts separate entries of the source, which are not always exact repeats. Equal values may be shown once.

biological target: T1, SCD (Mus musculus, UniProt P13516); experiment: SCD microsomal assay (tritiated stearoyl-CoA, release of labeled water), mouse liver microsomes; format: biochemical; settings: % remaining SCD activity at 10 µM of test compound, 100 µg, preincubation 15 minutes, desaturation period 15 minutes at ambient temperature
T1 construct: from tissue; host or cells: mouse liver microsomes (induced for SCD1 expression)
T1 sequence (P13516 1-355): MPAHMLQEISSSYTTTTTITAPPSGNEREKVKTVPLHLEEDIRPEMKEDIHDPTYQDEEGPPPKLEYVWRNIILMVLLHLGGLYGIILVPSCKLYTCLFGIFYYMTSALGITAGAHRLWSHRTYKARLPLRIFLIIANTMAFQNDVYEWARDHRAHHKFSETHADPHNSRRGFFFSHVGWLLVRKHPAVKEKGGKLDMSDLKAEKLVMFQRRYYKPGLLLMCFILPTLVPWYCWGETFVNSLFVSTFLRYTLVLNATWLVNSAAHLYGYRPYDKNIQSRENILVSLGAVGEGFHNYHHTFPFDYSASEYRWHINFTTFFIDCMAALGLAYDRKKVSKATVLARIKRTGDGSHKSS
Text: The identification of compounds of the invention as SCD inhibitors was readily accomplished using the SCD enzyme and microsomal assay procedure described in Brownlie et al, supra.
The identification of compounds of the invention as SCD inhibitors was readily accomplished using the SCD enzymes and microsomal assay procedure described in Brownlie et al, PCT published patent application, WO 01/62954. Briefly, mouse or human liver microsomes (induced for SCD1 expression and containing cytochrome b5 and cytochrome b5 reductase) and NADH are suspended in buffer with a compound of the invention, and reaction is initiated by addition of 0.025 mM tritiated stearoyl-CoA. This ligand is tritiated at the C9 and C10 position only. The reaction is allowed to proceed for between 5 and 20 minutes at ambient temperature, whereupon it is halted by addition of acid. Activated charcoal is then added, mixed, and centrifuged to separate labeled substrate from labeled water. An aliquot of supernatant is than tested for radioactivity using liquid scintillation counting. This is taken as a measure of delta-9 desaturase activity.
Compounds were tested in mouse liver microsomes, 100 µg, preincubation with the test compound for 15 minutes at ambient temperature, a desaturation period for 15 minutes at ambient temperature, utilizing the large volume bench-top tube method. TABLE 3. SCD INHIBITORY ACTIVITY FOR SELECTED COMPOUNDS.

| SMILES | activity at 10 µM [%] | % Activity 10 µM |
| --- | --- | --- |
| CCSCCNC(=O)c1ccc(N2CCN(C(=O)Cc3ccc(C)cc3)CC2)nc1 [N-(2-Ethylsulfanyl-ethyl)-6-[4-(2-p-tolylacetyl)-piperazin-1-yl]-nicotinamide] | 1.8 |  |
| CCCCOCCCNC(=O)c1ccc(N2CCN(C(=O)c3ccccc3Br)CC2)nc1 [6-[4-(2-Bromo-benzoyl)-piperazin-1-yl]-N-(3-butoxy-propyl)-nicotinamide] | 0.8 |  |
| O=C(NCCCc1ccccc1)c1ccc(N2CCN(C(=O)c3ccccc3C(F)(F)F)CC2)nc1 [N-(3-Phenyl-propyl)-6-[4-(2-trifluoromethyl-benzoyl)-piperazin-1-yl]-nicotinamide] |  | 3.9% and 1.3% |
| COCCCNC(=O)c1ccc(N2CCN(C(=O)c3ccccc3Br)CC2)nc1 [6-[4-(2-Bromo-benzoyl)-piperazin-1-yl]-N-(3-methoxy-propyl)-nicotinamide] | 1.2 |  |
| CCCCNC(=O)c1ccc(N2CCN(C(=O)C(CC)CC)CC2)nc1 [N-Butyl-6-[4-(2-ethylbutyryl)-piperazin-1-yl]-nicotinamide] | 2 |  |
| CC(C)CC(C)NC(=O)c1ccc(N2CCN(C(=O)c3ccccc3C(F)(F)F)CC2)nc1 (centres unmarked) [N-(1,3-Dimethylbutyl)-6-[4-(2-trifluoromethyl-benzoyl)-piperazin-1-yl]-nicotinamide] | 1.8 |  |
| CCCC(C)NC(=O)c1ccc(N2CCN(C(=O)CCC3CCCCC3)CC2)nc1 (centres unmarked) [6-[4-(3-Cyclohexyl-propionyl)-piperazin-1-yl]-N-(1-methylbutyl)-nicotinamide] | 2.1 |  |
| Cc1ccsc1C(=O)N1CCN(c2ccc(C(=O)NC(C)CCc3ccccc3)cn2)CC1 (centres unmarked) [N-(1-Methyl-3-phenyl-propyl)-6-[4-(3-methyl-thiophene-2-carbonyl)-piperazin-1-yl]-nicotinamide] | 3.4 |  |
| CCCCCNC(=O)c1ccc(N2CCN(C(=O)Cc3ccc4ccccc4c3)CC2)nc1 [6-[4-(2-Naphthalen-2-yl-acetyl)-piperazin-1-yl]-N-pentylnicotinamide] | 0.7 |  |
| CCSCCNC(=O)c1ccc(N2CCN(C(=O)CCC3CCCCC3)CC2)nc1 [6-[4-(3-Cyclohexyl-propionyl)-piperazin-1-yl]-N-(2-ethylsulfanyl-ethyl)-nicotinamide] | 1.4 |  |
| CCSCCNC(=O)c1ccc(N2CCN(C(=O)c3cc(OC)ccc3Br)CC2)nc1 [6-[4-(2-Bromo-5-methoxy-benzoyl)-piperazin-1-yl]-N-(2-ethylsulfanylethyl)-nicotinamide] | 1.4 |  |
| CCOCCCNC(=O)c1ccc(N2CCN(C(=O)c3ccccc3Br)CC2)nc1 [6-[4-(2-Bromo-benzoyl)-piperazin-1-yl]-N-(3-ethoxy-propyl)-nicotinamide] | 1 |  |
| CC(CCc1ccccc1)NC(=O)c1ccc(N2CCN(C(=O)c3ccc(Cl)cc3Cl)CC2)nc1 (centres unmarked) [6-[4-(2,4-Dichloro-benzoyl)-piperazin-1-yl]-N-(1-methyl-3-phenyl-propyl)-nicotinamide] | 2.7 |  |
| CCC(C(=O)N1CCN(c2ccc(C(=O)NCCCc3ccccc3)cn2)CC1)c1ccccc1 (centres unmarked) [6-[4-(2-Phenyl-butyryl)-piperazin-1-yl]-N-(3-phenyl-propyl)-nicotinamide] | 3.6 |  |
| CC(C)CCNC(=O)c1ccc(N2CCN(C(=O)CCC3CCCCC3)CC2)nc1 [6-[4-(3-Cyclohexyl-propionyl)-piperazin-1-yl]-N-(3-methylbutyl)-nicotinamide] | 1.3 |  |
| CCCCCNC(=O)c1ccc(N2CCN(C(=O)c3ccc(Cl)cc3Cl)CC2)nc1 [6-[4-(2,4-Dichloro-benzoyl)-piperazin-1-yl]-N-pentyl-nicotinamide] | 1.2 |  |
| CCCCOCCCNC(=O)c1ccc(N2CCN(C(=O)c3ccc(C)cc3C)CC2)nc1 [N-(3-Butoxy-propyl)-6-[4-(2,4-dimethylbenzoyl)-piperazin-1-yl]-nicotinamide] | 0.7 |  |
| CCC(CC)C(=O)N1CCN(c2ccc(C(=O)NCCC(C)C)cn2)CC1 [6-[4-(2-Ethylbutyryl)-piperazin-1-yl]-N-(3-methylbutyl)-nicotinamide] | 1.7 |  |
| COc1ccc(Br)c(C(=O)N2CCN(c3ccc(C(=O)NCCc4ccccc4)cn3)CC2)c1 [6-[4-(2-Bromo-5-methoxy-benzoyl)-piperazin-1-yl]-N-phenethylnicotinamide] | 1.1 |  |
| Cc1ccccc1CC(=O)N1CCN(c2ccc(C(=O)NCCC(C)C)cn2)CC1 [N-(3-Methyl-butyl)-6-[4-(2-o-tolyl-acetyl)-piperazin-1-yl]-nicotinamide] | 3.2 |  |
